Literature values as cited in patent US6601275B2, “Method and composition for embalming” (United Biotechnologies, L.L.C., priority 2000, dated 2003).

In the case of `C=O` [formaldehyde], the “airborne concentration causing irritation of the eyes nose and throat” value (airborne) is listed as “above 0.1 ppm”, the “airborne concentration immediately dangerous to life and health” value (airborne) is listed as 100 ppm and the carcinogenicity (human) is listed as “potential human carcinogen”.
